Target: T1, Vasopressin V2 (Rattus norvegicus, UniProt Q00788)
T1 construct: Vasopressin V2 Agonist Effects of Test Compounds in Normal Conscious Water-loaded Rats; from tissue; host or cells: whole animal: conscious water-loaded Sprague-Dawley rats (V2 receptors of the kidney collecting ducts)
Test: Vasopressin V2 agonist effects of test compounds in normal conscious water-loaded rats
Type: in vivo
Details: oral dose of 10 mg/Kg, water-loaded Sprague-Dawley (CD) rats; for Changes in Urinary Osmolality: osmolality changes expressed as percent of control, urine collected for four hours; for Urine Volume (% decrease): percent decrease in urine volume vs. control, urine collected for four hours after dosing
Description: Vasopressin V2 Agonist Effects of Test Compounds in Normal Conscious Water-loaded Rats:
Male or female normotensive Sprague-Dawley rats (Charles River Laboratories, Inc., Kingston, N.Y.) of 350-500 g body weight were supplied with standard rodent diet (Purina Rodent Lab. Chow 5001) and water ad libitum. On the day of test, rats were placed individually into metabolic cages equipped with devices to separate the feces from the urine and containers for collection of urine. A test compound or a reference agent was given at an oral dose of 10 mg/Kg in a volume of 10 mL/Kg. The vehicle used was 20% dimethylsulfoxide (DMSO) in 2.5% preboiled corn starch. Thirty minutes after dosing the test compound, rats were gavaged with water at 30 mL/Kg into the stomach using a feeding needle. During the test, rats were not provided with water or food. Urine was collected for four hours after dosing of the test compound. At the end of four hours, urine volume was measured. Urinary osmolality was determined using a Fiske One-Ten Osmometer (Fiske Associates, Norwood, Mass., 02062) or an Advanced CRYOMATIC Osmometer, Model 3C2 (Advanced Instruments, Norwood, Mass.). Determinations of Na^+, K^+ and Cl^− ion were carried out using ion specific electrodes in a Beckman SYNCHRON EL-ISE Electrolyte System analyzer. The urinary osmolality should increase proportionally. In the screening test, two rats were used for each compound. If the difference in the urine volume of the two rats was greater than 50%, a third rat was used.

T1 sequence (Q00788 whole entry): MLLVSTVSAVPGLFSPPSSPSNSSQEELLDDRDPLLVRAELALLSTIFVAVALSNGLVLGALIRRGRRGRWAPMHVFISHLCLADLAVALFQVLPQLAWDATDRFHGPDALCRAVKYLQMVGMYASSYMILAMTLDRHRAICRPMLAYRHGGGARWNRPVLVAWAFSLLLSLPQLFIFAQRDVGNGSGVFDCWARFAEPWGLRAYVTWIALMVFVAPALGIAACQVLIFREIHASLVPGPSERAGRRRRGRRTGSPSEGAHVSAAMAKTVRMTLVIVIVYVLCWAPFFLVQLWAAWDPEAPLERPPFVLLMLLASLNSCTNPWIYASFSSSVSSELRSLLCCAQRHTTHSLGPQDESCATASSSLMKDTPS

Row | Changes in Urinary Osmolality | Urine Volume (% decrease) | Structure (SMILES)
1 | 54% of control | 29 % decrease | O=C(c1ccc2c(c1)CCO2)N1Cc2cccnc2Nc2ccccc21 [Example 3, (5,11-Dihydro-benzo[b]pyrido [2.3-e][1,4]Diazepin-6-yl)-(2,3-dihydro-benzofuran-5-yl)-methanone]
2 | – | 13 % decrease | O=C(c1ccc2nonc2c1)N1Cc2cccnc2Nc2ccccc21 [Example 4, Benzo[1,2,5]oxadiazol-5-yl-(5,11-dihydro-benzo[b]pyrido [2.3-e][1,4]Diazepin-6-yl)-methanone]
3 | 35% of control | 21 % decrease | Cn1ccc2cc(C(=O)N3Cc4cccnc4Oc4ccccc43)ccc21 [Example 6]
4 | 78% of control | 31 % decrease | O=C(c1ccc2ncsc2c1)N1Cc2cccnc2Nc2ccccc21 [Example 5]
5 | 247% of control | 61 % decrease | O=C(c1ccc2c(c1)OCO2)N1Cc2cccnc2Nc2ccccc21 [Example 2, Benzo [1,3]Dioxol-5-yl-(5,11-dihydro-benzo[b]pyrido [2.3-e][1,4]Diazepin-6-yl)-mothanone]

Row | Structure (SMILES) | Changes in Urinary Osmolality | Urine Volume (% decrease)
6 | Cn1ccc2cc(C(=O)N3Cc4cccnc4Nc4ccccc43)ccc21 [Example 1] | 159% of control | 74 % decrease
